This note sets out measurements from patent US20220323406A1, “METHODS AND COMPOSITIONS FOR DIFFERENTIATING STEM CELLS” (Massachusetts Institute of Technology, priority 2019, published 2022).

The test system of experiment [1] is ENR+CD organoids. Briefly: Primary screen: ATP (CellTiter-Glo 3D, CTG) cell number/viability, 2.5-D 384-well ENR+CD organoids.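 On all read-outs here: compounds given at plating and again on day 3 over a 6-day differentiation from ENR+CV stem-cell-enriched precursors, ATP measured on day 6, plate median as control.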 The following applies: primary screen; for Z.CTG: standard z score. A general note: ATP-based viability assays read luminescence as a measure of living cells.
In experiment [2] the test system is ENR+CD organoids (ISC to Paneth cell differentiation). Briefly: Primary screen: basal (non-stimulated) lysozyme secretion LYZ.NS, 2.5-D 384-well ENR+CD organoid differentiation. It is filed as cell-based, mouse. The text has this:
(§1) High-throughput screening.

For experiment [3] the test system is unchanged. Briefly: Primary screen: CCh-stimulated lysozyme secretion LYZ.S, 2.5-D 384-well ENR+CD organoid differentiation. It is filed as cell-based, mouse. Particulars: primary screen.
Excerpt: as §1

Setting [4] is: dose 0.40 uM, FC vs plate median.
The mark [5] stands for this setting: dose 2.00 uM, FC vs plate median.
The mark [6] stands for this setting: dose 10.00 uM, FC vs plate median.
Where [7] appears, read: primary screen, dose 0.40 uM, standard z score.
The mark [8] stands for this setting: primary screen, dose 2.00 uM, standard z score.
[9] abbreviates: primary screen, dose 10.00 uM, standard z score.
Setting [10] is: primary screen; dose 0.40 uM; FC vs plate median.
[11] abbreviates: primary screen; dose 2.00 uM; FC vs plate median.
[12] abbreviates: primary screen; dose 10.00 uM; FC vs plate median.
[13] abbreviates: dose 0.08 uM, FC vs plate median.

Take `O=C(C[S+]([O-])Cc1ccco1)NC/C=C\COc1cc(CN2CCCCC2)ccn1` (centres unmarked) [Lafutidine]: the “Dose.FC.CTG (log2 fold change)” value in experiment [1] (dose 0.08 uM) was 0.152; in experiment [1] (dose 0.40 uM) it was 0.145; in experiment [1] (dose 2.00 uM), 0.138; in experiment [1] (dose 10.00 uM), −0.098. Also, the “Dose.FC.LYZ.NS (log2 fold change)” value is recorded as 0.043 in experiment [2] (primary screen, dose 0.08 uM); 0.007 in experiment [2] (primary screen, dose 0.40 uM); 0.037 in experiment [2] (primary screen, dose 2.00 uM); 0.075 in experiment [2] (primary screen, dose 10.00 uM). Besides, the “Z.LYZ.NS (standard z score)” value in experiment [2] (primary screen, dose 0.08 uM) amounted to 0.372; in experiment [2] (primary screen, dose 0.40 uM), 0.059; in experiment [2] (primary screen, dose 2.00 uM), 0.320; in experiment [2] (primary screen, dose 10.00 uM), 0.657. In addition, the “Dose.FC.LYZ.S (log2 fold change)” value was 0.052 in experiment [3] (dose 0.08 uM), 0.078 in experiment [3] (dose 0.40 uM), 0.076 in experiment [3] (dose 2.00 uM) and −0.014 in experiment [3] (dose 10.00 uM).
As for `CCOC(=O)C1=C(C)NC(C)=C(C(=O)OC)C1c1cccc(Cl)c1Cl` (centres unmarked) [Felodipine], the Dose.FC.CTG in experiment [1] (dose 0.08 uM) is recorded as −0.078 log2 fold change; in experiment [1] (dose 0.40 uM), −0.319 log2 fold change; in experiment [1] (dose 2.00 uM), 0.011 log2 fold change; in experiment [1] (dose 10.00 uM) it was 0.032 log2 fold change. The Dose.FC.LYZ.NS is 0.001 log2 fold change in experiment [2] (primary screen, dose 0.08 uM); −0.033 log2 fold change in experiment [2] (primary screen, dose 0.40 uM); 0.002 log2 fold change in experiment [2] (primary screen, dose 2.00 uM); −0.056 log2 fold change in experiment [2] (primary screen, dose 10.00 uM). For the same compound, the Z.LYZ.NS is reported as 0.010 in experiment [2] (primary screen, standard z score, dose 0.08 uM); −0.284 in experiment [2] (primary screen, standard z score, dose 0.40 uM); 0.017 in experiment [2] (primary screen, standard z score, dose 2.00 uM); −0.487 in experiment [2] (primary screen, standard z score, dose 10.00 uM). Also, the Dose.FC.LYZ.S was 0.008 log2 fold change in experiment [3] (dose 0.08 uM), −0.042 log2 fold change in experiment [3] (dose 0.40 uM), −0.003 log2 fold change in experiment [3] (dose 2.00 uM) and −0.067 log2 fold change in experiment [3] (dose 10.00 uM).
On to `CN(Cc1cnc2nc(N)nc(N)c2n1)c1ccc(C(=O)N[C@@H](CCC(=O)O)C(=O)O)cc1` [Methotrexate], for which the “Dose.FC.CTG (log2 fold change)” value in experiment [1] (dose 0.08 uM) was −0.615. Moreover, the Dose.FC.CTG in experiment [1] (setting [4]) is listed as −0.722 log2 fold change; in experiment [1] (setting [5]) it was −0.701 log2 fold change; in experiment [1] (setting [6]), −0.642 log2 fold change. The “Dose.FC.LYZ.NS (log2 fold change)” value in experiment [2] (primary screen, dose 0.08 uM) is reported as −0.097. In experiment [2] (primary screen, dose 0.08 uM), the “Z.LYZ.NS (standard z score)” value is recorded as −0.843. Moreover, the Z.LYZ.NS is −0.332 in experiment [2] (setting [7]), −1.132 in experiment [2] (setting [8]) and −0.658 in experiment [2] (setting [9]). In addition, the Dose.FC.LYZ.NS is reported as −0.038 log2 fold change in experiment [2] (setting [10]), −0.130 log2 fold change in experiment [2] (setting [11]) and −0.076 log2 fold change in experiment [2] (setting [12]). For the same compound, in experiment [3] (dose 0.08 uM), the “Dose.FC.LYZ.S (log2 fold change)” value is −0.159. Further, the Dose.FC.LYZ.S in experiment [3] (setting [4]) was −0.129 log2 fold change; in experiment [3] (setting [5]), −0.177 log2 fold change; in experiment [3] (setting [6]), −0.156 log2 fold change.
Turning to `COc1cc(OC)c(NC(=O)Nc2cc(C)on2)cc1Cl` [PNU-120596], the Z.CTG in experiment [1] (dose 0.08 uM) was −0.188; in experiment [1] (dose 0.40 uM), 0.204; in experiment [1] (dose 2.00 uM), 0.271; in experiment [1] (dose 10.00 uM), 0.330. The Dose.FC.CTG in experiment [1] (setting [13]) was −0.079 log2 fold change; in experiment [1] (setting [4]), 0.085 log2 fold change; in experiment [1] (setting [5]), 0.114 log2 fold change; in experiment [1] (setting [6]) it was 0.138 log2 fold change. For the same compound, the Z.LYZ.NS in experiment [2] (primary screen, dose 0.08 uM, standard z score) is 0.944; in experiment [2] (setting [7]), −0.098; in experiment [2] (setting [8]), 0.594; in experiment [2] (setting [9]), −0.525. Moreover, the Dose.FC.LYZ.NS in experiment [2] (primary screen; dose 0.08 uM; FC vs plate median) was 0.108 log2 fold change; in experiment [2] (setting [10]) it was −0.011 log2 fold change; in experiment [2] (setting [11]) it was 0.068 log2 fold change; in experiment [2] (setting [12]), −0.060 log2 fold change. Further, the Dose.FC.LYZ.S is recorded as 0.058 log2 fold change in experiment [3] (setting [13]), 0.081 log2 fold change in experiment [3] (setting [4]), 0.065 log2 fold change in experiment [3] (setting [5]) and −0.049 log2 fold change in experiment [3] (setting [6]).
